The results in this text go back to ChEMBL document CHEMBL5257159, “Insights into targeting SARS-CoV-2: design, synthesis, in silico studies and antiviral evaluation of new dimethylxanthine derivatives” (RSC Med Chem, 2023).

Series [1] relates to SARS-CoV-2. The series can be described thus: Antiviral activity against SARS-CoV-2 NRC-03-nhCoV infected in african green monkey Vero E6 cells assessed as inhibition of virus-induced cytopathic effect measured after 72 hrs by crystal violet staining based assay. Type of series: functional, organism-based. The settings on record: Severe acute respiratory syndrome coronavirus 2, NRC-03-nhCoV, Vero C1008, 72 h.

Series [2] can be described thus: Cytotoxicity against African green monkey Vero E6 cells measured after 72 hrs by MTT assay. It is filed as toxicity, cell-based, Vero C1008. The settings on record: chlorocebus sabaeus. For orientation: Tetrazolium dyes change colour on reduction, which living cells bring about.
Series [3] in a line: Selectivity index, ratio of CC50 for african green monkey Vero E6 cells to IC50 for antiviral activity against SARS-CoV-2 NRC-03-nhCoV infected in african green monkey Vero E6 cells. Type of series: toxicity, Vero C1008. The settings on record: read-out: Ratio CC50/IC50.
Series [4] concerns the target Replicase polyprotein 1ab (Severe acute respiratory syndrome coronavirus 2, UniProt P0DTD1). The series is described as follows: Inhibition of recombinant SARS-CoV-2 main protease expressed in Escherichia coli BL21 using Dabcyl-EDANS and Boc-Abu-Tle-Leu-Gln-AMC as substrate.

With `Cn1c(=O)c2c(nc3n2CC=C(O)N3c2ccc(S(N)(=O)=O)cc2)n(C)c1=O`, the IC50 (as a rule, the concentration that gives 50% inhibition) in series [1] was 16 µM. Moreover, the CC50 (in general, the concentration at which the toxic effect on the cells reaches its halfway point) at 72 h in series [2] was 2040 µM. Moreover, the selectivity ratio in series [3] was determined as 127.
For `CCC(CC)COC(=O)[C@H](C)N[P@](=O)(OC[C@H]1O[C@@](C#N)(c2ccc3c(N)ncnn23)[C@H](O)[C@@H]1O)Oc1ccccc1`, in series [1], the IC50 amounted to 10.1 µM. Besides, half-maximal cytotoxicity in series [2] (CC50 at 72 h) was put at 608 µM.
Take `Cn1c(=O)c2c(nc3n(CC#Cc4ccc(Cl)c(Cl)c4)ccn23)n(C)c1=O`: the IC50 in series [4] was found to be 4.7 µM.
